# According to ChEMBL document CHEMBL4152382, “Discovery of Tarantula Venom-Derived NaV1.7-Inhibitory JzTx-V Peptide 5-Br-Trp24 Analogue AM-6120 with Systemic Block of Histamine-Induced Pruritis” (J Med Chem, 2018):
# Assays:
# [1] = molecular target: Sodium channel protein type 9 subunit alpha (Homo sapiens, UniProt Q15858); assay: Inhibition of human Nav1.7 expressed in HEK293 cells at holding potential of -125 mV […] by patchxpress-based electrophysiology assay; assay type: cell-based
# [2] = molecular target: Sodium channel protein type 4 subunit alpha (Homo sapiens, UniProt P35499); assay: Inhibition of human Nav1.4 expressed in HEK293 cells at holding potential of -125 mV […] by patchxpress-based electrophysiology assay; assay type: cell-based
# Sodium channel protein type 4 subunit alpha, sequence (P35499 whole entry): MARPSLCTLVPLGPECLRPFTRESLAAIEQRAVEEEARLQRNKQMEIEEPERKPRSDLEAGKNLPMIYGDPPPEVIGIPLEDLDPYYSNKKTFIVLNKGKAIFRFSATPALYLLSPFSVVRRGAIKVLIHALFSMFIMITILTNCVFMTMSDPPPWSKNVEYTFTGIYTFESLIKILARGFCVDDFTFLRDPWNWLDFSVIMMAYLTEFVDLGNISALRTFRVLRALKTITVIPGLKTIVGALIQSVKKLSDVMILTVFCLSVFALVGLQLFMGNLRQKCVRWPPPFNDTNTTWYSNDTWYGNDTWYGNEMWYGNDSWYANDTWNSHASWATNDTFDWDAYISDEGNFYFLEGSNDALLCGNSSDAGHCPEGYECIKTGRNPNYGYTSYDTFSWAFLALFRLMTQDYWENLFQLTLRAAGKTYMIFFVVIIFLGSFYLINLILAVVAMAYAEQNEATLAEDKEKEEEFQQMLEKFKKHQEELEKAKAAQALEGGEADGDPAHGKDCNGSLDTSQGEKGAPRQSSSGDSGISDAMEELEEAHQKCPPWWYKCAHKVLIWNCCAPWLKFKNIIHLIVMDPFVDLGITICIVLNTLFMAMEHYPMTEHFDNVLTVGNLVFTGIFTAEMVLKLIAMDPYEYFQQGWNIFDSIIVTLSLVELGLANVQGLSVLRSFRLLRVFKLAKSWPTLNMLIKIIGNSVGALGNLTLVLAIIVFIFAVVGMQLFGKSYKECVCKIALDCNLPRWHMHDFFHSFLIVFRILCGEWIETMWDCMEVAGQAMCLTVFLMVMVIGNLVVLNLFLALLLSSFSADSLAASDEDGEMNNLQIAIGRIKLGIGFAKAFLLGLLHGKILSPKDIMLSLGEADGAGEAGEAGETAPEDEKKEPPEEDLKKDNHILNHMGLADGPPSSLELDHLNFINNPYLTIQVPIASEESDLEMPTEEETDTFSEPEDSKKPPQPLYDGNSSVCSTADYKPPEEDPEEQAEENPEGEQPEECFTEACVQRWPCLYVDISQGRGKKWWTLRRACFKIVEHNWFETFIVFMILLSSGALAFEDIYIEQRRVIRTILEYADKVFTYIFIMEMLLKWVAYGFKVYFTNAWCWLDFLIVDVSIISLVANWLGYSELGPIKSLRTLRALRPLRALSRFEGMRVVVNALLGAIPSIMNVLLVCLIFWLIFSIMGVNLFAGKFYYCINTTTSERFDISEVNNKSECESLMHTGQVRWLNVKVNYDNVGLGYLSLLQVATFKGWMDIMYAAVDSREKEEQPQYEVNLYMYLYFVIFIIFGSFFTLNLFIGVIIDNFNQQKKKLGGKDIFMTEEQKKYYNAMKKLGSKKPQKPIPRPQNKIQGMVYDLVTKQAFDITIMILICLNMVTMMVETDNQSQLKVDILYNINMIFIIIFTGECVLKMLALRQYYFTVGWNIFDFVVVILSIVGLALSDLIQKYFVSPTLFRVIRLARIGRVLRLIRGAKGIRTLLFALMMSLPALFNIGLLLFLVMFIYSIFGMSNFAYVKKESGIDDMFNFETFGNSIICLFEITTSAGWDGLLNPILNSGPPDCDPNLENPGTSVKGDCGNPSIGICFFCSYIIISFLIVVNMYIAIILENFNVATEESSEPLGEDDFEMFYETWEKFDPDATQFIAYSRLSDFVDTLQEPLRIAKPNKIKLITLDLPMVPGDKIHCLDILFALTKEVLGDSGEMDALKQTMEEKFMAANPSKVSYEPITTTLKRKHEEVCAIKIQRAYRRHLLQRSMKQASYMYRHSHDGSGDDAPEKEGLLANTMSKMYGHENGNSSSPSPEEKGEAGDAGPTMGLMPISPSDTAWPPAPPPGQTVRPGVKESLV
# Sodium channel protein type 9 subunit alpha, sequence (Q15858 whole entry): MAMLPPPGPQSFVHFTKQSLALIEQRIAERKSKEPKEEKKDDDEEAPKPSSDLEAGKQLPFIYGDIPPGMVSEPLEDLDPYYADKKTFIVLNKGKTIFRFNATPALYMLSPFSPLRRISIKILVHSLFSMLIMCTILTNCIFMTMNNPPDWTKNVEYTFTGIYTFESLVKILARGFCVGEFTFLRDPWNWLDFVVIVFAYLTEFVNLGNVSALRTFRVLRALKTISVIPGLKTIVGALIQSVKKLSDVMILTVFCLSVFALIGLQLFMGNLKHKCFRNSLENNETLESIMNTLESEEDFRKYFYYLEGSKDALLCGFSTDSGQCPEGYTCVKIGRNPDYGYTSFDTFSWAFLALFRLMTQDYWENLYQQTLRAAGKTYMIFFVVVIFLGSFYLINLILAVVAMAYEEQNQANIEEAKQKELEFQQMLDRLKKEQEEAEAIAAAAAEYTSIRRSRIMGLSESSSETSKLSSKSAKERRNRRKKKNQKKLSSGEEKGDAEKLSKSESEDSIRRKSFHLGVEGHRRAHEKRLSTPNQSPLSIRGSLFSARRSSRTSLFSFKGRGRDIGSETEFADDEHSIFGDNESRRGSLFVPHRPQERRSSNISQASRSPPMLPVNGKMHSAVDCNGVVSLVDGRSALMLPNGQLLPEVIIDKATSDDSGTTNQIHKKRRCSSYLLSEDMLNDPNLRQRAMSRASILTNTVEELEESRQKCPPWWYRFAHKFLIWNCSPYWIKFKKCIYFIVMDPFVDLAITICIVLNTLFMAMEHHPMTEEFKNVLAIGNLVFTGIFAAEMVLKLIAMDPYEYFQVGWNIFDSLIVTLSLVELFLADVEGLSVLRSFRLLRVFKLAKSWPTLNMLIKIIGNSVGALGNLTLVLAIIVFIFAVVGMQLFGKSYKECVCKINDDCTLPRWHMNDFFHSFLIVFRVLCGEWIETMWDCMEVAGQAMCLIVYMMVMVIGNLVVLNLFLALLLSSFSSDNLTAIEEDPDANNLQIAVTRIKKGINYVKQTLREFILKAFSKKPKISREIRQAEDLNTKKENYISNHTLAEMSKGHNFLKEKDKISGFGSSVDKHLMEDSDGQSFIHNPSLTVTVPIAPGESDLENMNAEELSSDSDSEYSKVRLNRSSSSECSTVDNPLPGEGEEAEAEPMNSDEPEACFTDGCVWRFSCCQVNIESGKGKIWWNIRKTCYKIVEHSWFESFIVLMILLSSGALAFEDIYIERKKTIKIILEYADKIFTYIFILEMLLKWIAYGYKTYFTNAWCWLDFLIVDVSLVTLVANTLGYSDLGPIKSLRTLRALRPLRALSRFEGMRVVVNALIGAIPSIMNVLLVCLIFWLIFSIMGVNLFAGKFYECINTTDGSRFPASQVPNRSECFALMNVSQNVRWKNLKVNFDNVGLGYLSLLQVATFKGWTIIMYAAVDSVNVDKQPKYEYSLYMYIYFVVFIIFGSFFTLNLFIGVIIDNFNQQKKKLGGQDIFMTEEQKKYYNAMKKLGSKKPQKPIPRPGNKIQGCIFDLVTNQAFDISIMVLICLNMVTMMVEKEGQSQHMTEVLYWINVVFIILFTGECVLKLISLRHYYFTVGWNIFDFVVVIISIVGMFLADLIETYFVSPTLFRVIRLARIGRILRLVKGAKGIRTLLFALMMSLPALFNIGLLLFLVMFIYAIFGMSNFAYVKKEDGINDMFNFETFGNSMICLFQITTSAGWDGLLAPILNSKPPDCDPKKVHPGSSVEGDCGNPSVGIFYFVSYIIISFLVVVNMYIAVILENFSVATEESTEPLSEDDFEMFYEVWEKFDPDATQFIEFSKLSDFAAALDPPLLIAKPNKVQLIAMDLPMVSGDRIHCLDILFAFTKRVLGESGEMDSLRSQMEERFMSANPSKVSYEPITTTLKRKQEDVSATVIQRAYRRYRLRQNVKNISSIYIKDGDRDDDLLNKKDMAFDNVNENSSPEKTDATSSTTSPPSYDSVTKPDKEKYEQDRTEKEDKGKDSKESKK
SMILES,IC50 [1],IC50 [2]
C#CC[C@H](N)C(=O)N[C@@H](Cc1ccc(O)cc1)C(=O)N[C@H]1CSSC[C@@H]2NC(=O)[C@@H]3CSSC[C@@H](C(=O)N[C@@H](CCCNC(=N)N)C(=O)N[C@@H](CCCCN)C(=O)N[C@@H](CCC(=O)O)C(=O)N[C@H](C(N)=O)[C@@H](C)CC)NC(=O)[C@H](Cc4c[nH]c5ccc(Cl)cc45)NC(=O)[C@H](CC(C)C)NC(=O)[C@H](CCCCN)NC(=O)[C@H](CSSC[C@H](NC(=O)[C@H]([C@@H](C)O)NC(=O)[C@H](Cc4c[nH]c5ccccc45)NC(=O)[C@H](CCCC)NC(=O)[C@H](Cc4c[nH]c5ccccc45)NC(=O)[C@H](CCCCN)NC(=O)[C@H](CCC(N)=O)NC1=O)C(=O)N[C@@H](CC(=O)O)C(=O)N[C@@H](CO)C(=O)N[C@@H](CCCCN)C(=O)N[C@@H](CCCNC(=N)N)C(=O)N[C@@H](C)C(=O)N3)NC(=O)[C@H](CCCNC(=N)N)NC(=O)[C@H](CC(C)C)NC(=O)CNC(=O)[C@H](CCC(=O)O)NC2=O,3.1 nM,23 nM
C#CC[C@H](N)C(=O)N[C@@H](Cc1ccc(O)cc1)C(=O)N[C@H]1CSSC[C@@H]2NC(=O)[C@@H]3CSSC[C@@H](C(=O)N[C@@H](CCCNC(=N)N)C(=O)N[C@@H](CCCCN)C(=O)N[C@@H](CCC(=O)O)C(=O)N[C@H](C(N)=O)[C@@H](C)CC)NC(=O)[C@H](Cc4c[nH]c5ccccc45)NC(=O)[C@H](CC(C)C)NC(=O)[C@H](CCCCN)NC(=O)[C@H](CSSC[C@H](NC(=O)[C@H]([C@@H](C)O)NC(=O)[C@H](Cc4c[nH]c5ccccc45)NC(=O)[C@H](CCCC)NC(=O)[C@H](Cc4ccccc4)NC(=O)[C@H](CCCCN)NC(=O)[C@H](CCC(N)=O)NC1=O)C(=O)N[C@@H](CC(=O)O)C(=O)N[C@@H](CO)C(=O)N[C@@H](CCCCN)C(=O)N[C@@H](CCCNC(=N)N)C(=O)N[C@@H](C)C(=O)N3)NC(=O)[C@H](CCCNC(=N)N)NC(=O)[C@H](CC(C)C)NC(=O)CNC(=O)[C@H](CCC(=O)O)NC2=O,1.3 nM,52 nM
C#CC[C@H](N)C(=O)N[C@@H](Cc1ccc(O)cc1)C(=O)N[C@H]1CSSC[C@@H]2NC(=O)[C@@H]3CSSC[C@@H](C(=O)N[C@@H](CCCNC(=N)N)C(=O)N[C@@H](CCCCN)C(=O)N[C@@H](CCC(=O)O)C(=O)N[C@@H](Cc4ccccc4)C(N)=O)NC(=O)[C@H](Cc4c[nH]c5ccccc45)NC(=O)[C@H](CC(C)C)NC(=O)[C@H](CCCCN)NC(=O)[C@H](CSSC[C@H](NC(=O)[C@H]([C@@H](C)O)NC(=O)[C@H](Cc4c[nH]c5ccccc45)NC(=O)[C@H](CCCC)NC(=O)[C@H](Cc4c[nH]c5ccccc45)NC(=O)[C@H](CCCCN)NC(=O)[C@H](CCC(N)=O)NC1=O)C(=O)N[C@@H](CC(=O)O)C(=O)N[C@@H](CO)C(=O)N[C@@H](CCCCN)C(=O)N[C@@H](CCCNC(=N)N)C(=O)N[C@@H](C)C(=O)N3)NC(=O)[C@H](CCCNC(=N)N)NC(=O)[C@H](CC(C)C)NC(=O)CNC(=O)[C@H](CCC(=O)O)NC2=O,0.2 nM,162 nM
C#CC[C@H](N)C(=O)N[C@@H](Cc1ccc(O)cc1)C(=O)N[C@H]1CSSC[C@@H]2NC(=O)[C@@H]3CSSC[C@@H](C(=O)N[C@@H](CCCNC(=N)N)C(=O)N[C@@H](CCCCN)C(=O)N[C@@H](CCC(=O)O)C(=O)N[C@@H](CC4CCCCC4)C(N)=O)NC(=O)[C@H](Cc4c[nH]c5ccccc45)NC(=O)[C@H](CC(C)C)NC(=O)[C@H](CCCCN)NC(=O)[C@H](CSSC[C@H](NC(=O)[C@H]([C@@H](C)O)NC(=O)[C@H](Cc4c[nH]c5ccccc45)NC(=O)[C@H](CCCC)NC(=O)[C@H](Cc4c[nH]c5ccccc45)NC(=O)[C@H](CCCCN)NC(=O)[C@H](CCC(N)=O)NC1=O)C(=O)N[C@@H](CC(=O)O)C(=O)N[C@@H](CO)C(=O)N[C@@H](CCCCN)C(=O)N[C@@H](CCCNC(=N)N)C(=O)N[C@@H](C)C(=O)N3)NC(=O)[C@H](CCCNC(=N)N)NC(=O)[C@H](CC(C)C)NC(=O)CNC(=O)[C@H](CCC(=O)O)NC2=O,0.6 nM,–
C#CC[C@H](N)C(=O)N[C@@H](Cc1ccc(O)cc1)C(=O)N[C@H]1CSSC[C@@H]2NC(=O)[C@@H]3CSSC[C@@H](C(=O)N[C@@H](CCCNC(=N)N)C(=O)N[C@@H](CCCCN)C(=O)N[C@@H](CCC(=O)O)C(=O)N[C@H](C(N)=O)[C@@H](C)CC)NC(=O)[C@H](Cc4c[nH]c5ccccc45)NC(=O)[C@H]([C@@H](C)CC)NC(=O)[C@H](CCCCN)NC(=O)[C@H](CSSC[C@H](NC(=O)[C@H]([C@@H](C)O)NC(=O)[C@H](Cc4c[nH]c5ccccc45)NC(=O)[C@H](CCCC)NC(=O)[C@H](Cc4c[nH]c5ccccc45)NC(=O)[C@H](CCCCN)NC(=O)[C@H](CCC(N)=O)NC1=O)C(=O)N[C@@H](CC(=O)O)C(=O)N[C@@H](CO)C(=O)N[C@@H](CCCCN)C(=O)N[C@@H](CCCNC(=N)N)C(=O)N[C@@H](C)C(=O)N3)NC(=O)[C@H](CCCNC(=N)N)NC(=O)[C@H](CC(C)C)NC(=O)CNC(=O)[C@H](CCC(=O)O)NC2=O,1.1 nM,–
C#CC[C@H](N)C(=O)N[C@@H](Cc1ccc(O)cc1)C(=O)N[C@H]1CSSC[C@@H]2NC(=O)[C@@H]3CSSC[C@@H](C(=O)N[C@@H](CCCNC(=N)N)C(=O)N[C@@H](CCCCN)C(=O)N[C@@H](CCC(=O)O)C(=O)N[C@H](C(N)=O)[C@@H](C)CC)NC(=O)[C@H](Cc4c[nH]c5ccccc45)NC(=O)[C@H](CC(C)C)NC(=O)[C@H](CCCCN)NC(=O)[C@H](CSSC[C@H](NC(=O)[C@H]([C@@H](C)O)NC(=O)[C@H](Cc4c[nH]c5ccccc45)NC(=O)[C@H](CCCC)NC(=O)[C@H](Cc4ccc5ccccc5c4)NC(=O)[C@H](CCCCN)NC(=O)[C@H](CCC(N)=O)NC1=O)C(=O)N[C@@H](CC(=O)O)C(=O)N[C@@H](CO)C(=O)N[C@@H](CCCCN)C(=O)N[C@@H](CCCNC(=N)N)C(=O)N[C@@H](C)C(=O)N3)NC(=O)[C@H](CCCNC(=N)N)NC(=O)[C@H](CC(C)C)NC(=O)CNC(=O)[C@H](CCC(=O)O)NC2=O,22 nM,–
C#CC[C@H](N)C(=O)N[C@@H](Cc1ccc(O)cc1)C(=O)N[C@H]1CSSC[C@@H]2NC(=O)[C@@H]3CSSC[C@@H](C(=O)N[C@@H](CCCNC(=N)N)C(=O)N[C@@H](CCCCN)C(=O)N[C@@H](CCC(=O)O)C(=O)N[C@H](C(N)=O)[C@@H](C)CC)NC(=O)[C@H](Cc4c[nH]c5ccccc45)NC(=O)[C@H](C4CCCCC4)NC(=O)[C@H](CCCCN)NC(=O)[C@H](CSSC[C@H](NC(=O)[C@H]([C@@H](C)O)NC(=O)[C@H](Cc4c[nH]c5ccccc45)NC(=O)[C@H](CCCC)NC(=O)[C@H](Cc4c[nH]c5ccccc45)NC(=O)[C@H](CCCCN)NC(=O)[C@H](CCC(N)=O)NC1=O)C(=O)N[C@@H](CC(=O)O)C(=O)N[C@@H](CO)C(=O)N[C@@H](CCCCN)C(=O)N[C@@H](CCCNC(=N)N)C(=O)N[C@@H](C)C(=O)N3)NC(=O)[C@H](CCCNC(=N)N)NC(=O)[C@H](CC(C)C)NC(=O)CNC(=O)[C@H](CCC(=O)O)NC2=O,0.5 nM,–
C#CC[C@H](N)C(=O)N[C@@H](Cc1ccc(O)cc1)C(=O)N[C@H]1CSSC[C@@H]2NC(=O)[C@@H]3CSSC[C@@H](C(=O)N[C@@H](CCCNC(=N)N)C(=O)N[C@@H](CCCCN)C(=O)N[C@@H](CCC(=O)O)C(=O)N[C@H](C(N)=O)[C@@H](C)CC)NC(=O)[C@H](Cc4c[nH]c5ccccc45)NC(=O)[C@H](CC(C)C)NC(=O)[C@H](CCCCN)NC(=O)[C@H](CSSC[C@H](NC(=O)[C@H]([C@@H](C)O)NC(=O)[C@H](CCc4ccccc4)NC(=O)[C@H](CCCC)NC(=O)[C@H](Cc4c[nH]c5ccccc45)NC(=O)[C@H](CCCCN)NC(=O)[C@H](CCC(N)=O)NC1=O)C(=O)N[C@@H](CC(=O)O)C(=O)N[C@@H](CO)C(=O)N[C@@H](CCCCN)C(=O)N[C@@H](CCCNC(=N)N)C(=O)N[C@@H](C)C(=O)N3)NC(=O)[C@H](CCCNC(=N)N)NC(=O)[C@H](CC(C)C)NC(=O)CNC(=O)[C@H](CCC(=O)O)NC2=O,6.8 nM,–
C#CC[C@H](N)C(=O)N[C@@H](Cc1ccc(O)cc1)C(=O)N[C@H]1CSSC[C@@H]2NC(=O)[C@@H]3CSSC[C@@H](C(=O)N[C@@H](CCCNC(=N)N)C(=O)N[C@@H](CCCCN)C(=O)N[C@@H](CCC(=O)O)C(=O)N[C@H](C(N)=O)[C@@H](C)CC)NC(=O)[C@H](Cc4c[nH]c5cc(C)ccc45)NC(=O)[C@H](CC(C)C)NC(=O)[C@H](CCCCN)NC(=O)[C@H](CSSC[C@H](NC(=O)[C@H]([C@@H](C)O)NC(=O)[C@H](Cc4c[nH]c5ccccc45)NC(=O)[C@H](CCCC)NC(=O)[C@H](Cc4c[nH]c5ccccc45)NC(=O)[C@H](CCCCN)NC(=O)[C@H](CCC(N)=O)NC1=O)C(=O)N[C@@H](CC(=O)O)C(=O)N[C@@H](CO)C(=O)N[C@@H](CCCCN)C(=O)N[C@@H](CCCNC(=N)N)C(=O)N[C@@H](C)C(=O)N3)NC(=O)[C@H](CCCNC(=N)N)NC(=O)[C@H](CC(C)C)NC(=O)CNC(=O)[C@H](CCC(=O)O)NC2=O,19 nM,–
C#CC[C@H](NC(=O)[C@@H](N)CCCCN)C(=O)N[C@H]1CSSC[C@@H]2NC(=O)[C@@H]3CSSC[C@@H](C(=O)N[C@@H](CCCNC(=N)N)C(=O)N[C@@H](CCCCN)C(=O)N[C@@H](CCC(=O)O)C(=O)N[C@H](C(N)=O)[C@@H](C)CC)NC(=O)[C@H](Cc4c[nH]c5ccc(Br)cc45)NC(=O)[C@H](CC(C)C)NC(=O)[C@H](CCCCN)NC(=O)[C@H](CSSC[C@H](NC(=O)[C@H]([C@@H](C)O)NC(=O)[C@H](Cc4c[nH]c5ccccc45)NC(=O)[C@H](CCCC)NC(=O)[C@H](Cc4c[nH]c5ccccc45)NC(=O)[C@H](CCCCN)NC(=O)[C@H](CCC(N)=O)NC1=O)C(=O)N[C@@H](CC(=O)O)C(=O)N[C@@H](CO)C(=O)N[C@@H](CCCCN)C(=O)N[C@@H](CCCNC(=N)N)C(=O)N[C@@H](C)C(=O)N3)NC(=O)[C@H](CCCNC(=N)N)NC(=O)[C@H](CC(C)C)NC(=O)CNC(=O)[C@H](CCC(=O)O)NC2=O,5.7 nM,–
